The structures appear in SMILES notation. Like-named read-outs stand apart in the source and are kept apart here. Bounds are passed on as bounds.

Data set [1] has as its system SD male rats. Type of data set: in vivo. The method, then: (§1) 77 SD male rats (SPF grade) are selected and randomly divided into 10 groups based on body weight. Group 1 is the vehicle control group, including 5 animals. […] Group 5 to Group 7 are the groups administrated with the test substance 1; and Group 8 to Group 10 are the groups administrated with the test substance 2, each group including 8 animals, wherein 5 animals for primary test, and 3 animals for toxicokinetics test, and the administration dose is 1, 3 and 10 mg/kg respectively. Each of the above groups is continuously administered twice a week for 2 weeks (administrating at Day 1, Day 5, Day 8, Day 12 and Day 15).
(§2) During the experiment, the cage condition monitoring, detailed clinical observations, determination of the food consumption, determination of body weight, measurement of the blood biochemical and hematology indicator, investigation of the gross anatomy, weighing of the organ, studying on toxicokinetic are performed on all the groups of the animals.
(§3) Original data during each time period is tabulated. The average values and standard deviations and/or group change are calculated for each assay endpoint based on the group and sex. For each endpoint, the administrated group will be compared with the control group in the following aspect. A logarithmic conversion is performed to the endpoint data as desired prior to the start of the specific analyses.

The format of data set [2] is in vivo. To be noted: rat, in vivo, male SD rats. The method, then:
as §1, §2, §3

Data set [3] in a line: Pharmacokinetics in cynomolgus monkeys. The following applies: cynomolgus monkey, in vivo, sc, 25 nmol/kg. The method, then: After subcutaneous or intravenous administration to cynomolgus monkeys, plasma is collected and the drug concentration in plasma is determined to illustrate the in vivo pharmacokinetic properties of the compound according to the present invention. The compound is dissolved in 1.4% PG in 8 mM Na2HPO4 Buffer (pH 7.39), and filtered through a filter membrane (PTFE, 0.45 μm) to obtain 25 and 12.5 nmol/mL solution of the compound respectively. The obtained solutions are administered to cynomolgus monkeys (4-8 kg) at a dose of 25 nmol/kg subcutaneously (s.c.) or 12.5 nmol/kg intravenously (i.v.). […] The blood samples are centrifuged at 2200 g for 10 minutes to obtain a plasma, which is stored at −90° C. to −60° C. for further analysis and assay.
70.0 μL of thawed plasma sample is taken. 70 μL of acetonitrile (containing 1 ng/ml of the internal standard) is added to precipitate protein. The mixture is vortexed for 1 minute, and centrifuged at 14000 rpm for 10 minutes. 60.0 μL of the supernatant is taken, into which 60.0 μL of 0.5% aqueous formic acid solution is added. The mixture is vortexed for 5 minutes. 10 μL of the mixture solution is sampled and injected into the LC-MS/MS to determine the drug concentration in plasma.
Based on the drug concentration in plasma of the compounds in the cynomolgus monkeys, the pharmacokinetic parameters are calculated by applying the software Winnolin 8.2 in a non-compartmental model, and the results are shown in Table 9 and Table 10 below.

Data set [4] is described as follows: Pharmacokinetics following single administration in SD rat. On the set-up: species or system SD rats. The following applies: in vivo, sc, 50 nmol/kg. The method, then: The compound is administrated to male SD rats (230-268 g, n=3) at a dose of 50.0 nmol/kg (s.c.) or 25.0 nmol/kg (i.v.). […] 30.0 μL of thawed plasma sample is taken. 150 μL of acetonitrile solution (containing 5 ng mL^−1 Verapamil, 50 ng·mL^−1 Glibenclamide, 200 ng·mL^−1 Tolbutamide and 200 ng·mL^−1 Diclofenac) are added to precipitate protein. The mixture is vortexed for 5 minutes, and centrifuged at 3700 rpm for 8 minutes. 70.0 μL of the supernatant is taken, into which 70.0 μL of 0.5% aqueous formic acid solution is added. The mixture is vortexed for 5 minutes. 15 μL of the mixture solution is sampled and injected into the LC-MS/MS to determine the drug concentration in plasma. 20.0 μL of thawed plasma sample is taken. 60 μL of acetonitrile solution (containing 5 ng mL^−1 Verapamil, 50 ng·mL^−1 Glibenclamide, 200 ng·mL^−1 Tolbutamide and 200 ng·mL^−1 Diclofenac) are added to precipitate protein. […] The mixture is vortexed for 10 minutes. 10.0 μL of the mixture solution is sampled and injected into the LC-MS/MS to determine the drug concentration in plasma. 30.0 μL of thawed plasma sample is taken. 150 μL of acetonitrile solution (containing 5 ng mL^−1 Verapamil, 50 ng mL^−1 Glibenclamide, 200 ng·mL^−1 Tolbutamide and 200 ng·mL^−1 Diclofenac) are added to precipitate protein. The mixture is vortexed for 5 minutes, and centrifuged at 3700 rpm for 8 minutes. 70.0 μL of the supernatant is taken, into which 70.0 μL of 0.5% aqueous formic acid solution is added. The mixture is vortexed for 5 minutes. 10.0 μL of the mixture solution is sampled and injected into the LC-MS/MS to determine the drug concentration in plasma.

Data set [5] in a line: Pharmacokinetics in C57 mice. To be noted: mouse, in vivo. As to the method:
After subcutaneous or intravenous administration to C57 mice, plasma is collected and the drug concentration in plasma is determined to illustrate the in vivo pharmacokinetic properties of the compound according to the present invention. […] 20.0 μL of thawed plasma sample is taken. 20 μL of 50% aqueous methanol solution (containing 100 ng mL^−1 internal standard) and 60 μL of acetonitrile are added sequentially to precipitate protein. The mixture is vortexed for 5 minutes, and centrifuged at 3700 rpm for 8 minutes. 50.0 μL of the supernatant is taken, into which 50.0 μL of 0.5% aqueous formic acid solution is added. The mixture is vortexed for 5 minutes. 50 μL of the mixture solution is sampled and injected into the LC-MS/MS to determine the drug concentration in plasma.

For orientation: MRT inf means the average time that molecules of a dose stay in the body. As usually defined, the MRT last is a mean duration of stay, worked out from the concentration-time curve. Take `CC[C@H](C)[C@H](NC(=O)C(C)(C)NC(=O)[C@H](Cc1ccc(O)cc1)NC(=O)[C@H](CC(=O)O)NC(=O)[C@H](CO)NC(=O)[C@@H](NC(=O)C(C)(Cc1ccccc1)NC(=O)[C@@H](NC(=O)CNC(=O)[C@H](CCC(=O)O)NC(=O)C(C)(C)NC(=O)[C@@H](N)Cc1ccc(O)cc1)[C@@H](C)O)[C@@H](C)O)C(=O)NC(C)(C)C(=O)N[C@@H](CC(C)C)C(=O)N[C@@H](CC(=O)O)C(=O)N[C@@H](CCCCN)C(=O)N[C@@H](CCC(N)=O)C(=O)N[C@@H](C)C(=O)N[C@@H](CCC(N)=O)C(=O)N[C@@H](C)C(=O)N[C@@H](CCC(=O)O)C(=O)N[C@@H](Cc1ccccc1)C(=O)N[C@H](C(=O)N[C@@H](CCCCNC(=O)COCCOCCNC(=O)COCCOCCNC(=O)CC[C@H](NC(=O)CCCCCCCCCCCCCCCCCCCCC(=O)O)C(=O)O)C(=O)N[C@@H](Cc1c[nH]c2ccccc12)C(=O)N[C@@H](CC(C)C)C(=O)N[C@@H](CC(C)C)C(=O)N[C@@H](CCCCN)C(=O)NCC(=O)NCC(=O)N1CCC[C@H]1C(=O)N[C@@H](CO)C(=O)N[C@@H](CO)C(=O)NCC(=O)N[C@@H](C)C(=O)N1CCC[C@H]1C(=O)N1CCC[C@H]1C(=O)N1CCC[C@H]1C(=O)N[C@@H](CO)C(=O)N[C@@H](CCCCN)C(N)=O)C(C)C` (some centres unmarked) [P014]: the “Toxicokinetic: Cmax and AUC versus dose” value in data set [1] (male SD rats, 1, 3, 10 mg/kg) is “increase nearly proportionally to the dose”. Besides, the “Toxicokinetic: accumulation” value in data set [1] (male SD rats, continuously administered twice a week for 2 weeks) was “no substantial accumulation”. Further, the “Safety Window (based on dosage)” value in data set [1] (rat MTD for 2 weeks vs efficacy dose in db/db mice) came out at 1319. Besides, in data set [1] (rat, in vivo), the “Safety Window (based on exposure AUClast)” value was 596. For the same compound, the “dose at which decrease of the body weight is observed after the first administration” value in data set [1] (rat, in vivo) was no less than 1 mg/kg. Besides, the MTD in data set [2] (MTD for 2 weeks, twice a week) was 1.98 µmol/kg; in data set [2] (continuously administered twice a week for 2 weeks), greater than 10 mg/kg. Besides, the MRT inf in data set [3] turned out to be 77.4 ± 13.5 h; in data set [4] it was 30 ± 1.01 h; in data set [5] (iv) it was 19.2 h; in data set [5] (sc), 30.3 h. Moreover, the MRT last in data set [3] was determined as 74.2 ± 13.8 h; in data set [4], 26.2 ± 0.781 h; in data set [5] (iv) it was 15.7 h; in data set [5] (sc), 22.9 h.

As to `CC[C@H](C)[C@H](NC(=O)C(C)(C)NC(=O)[C@H](Cc1ccc(O)cc1)NC(=O)[C@H](CC(=O)O)NC(=O)[C@H](CO)NC(=O)[C@@H](NC(=O)C(C)(Cc1ccccc1)NC(=O)[C@@H](NC(=O)CNC(=O)[C@H](CCC(=O)O)NC(=O)C(C)(C)NC(=O)[C@@H](N)Cc1ccc(O)cc1)[C@@H](C)O)[C@@H](C)O)C(=O)NC(C)(C)C(=O)N[C@@H](CC(C)C)C(=O)N[C@@H](CC(=O)O)C(=O)N[C@@H](CCCCN)C(=O)N[C@@H](CCC(N)=O)C(=O)N[C@@H](C)C(=O)N[C@@H](CCC(N)=O)C(=O)N[C@@H](C)C(=O)N[C@@H](CCC(=O)O)C(=O)N[C@@H](Cc1ccccc1)C(=O)N[C@H](C(=O)N[C@@H](CCCCN)C(=O)N[C@@H](Cc1c[nH]c2ccccc12)C(=O)N[C@@H](CC(C)C)C(=O)N[C@@H](CC(C)C)C(=O)N[C@@H](CCCCNC(=O)COCCOCCNC(=O)COCCOCCNC(=O)COCCOCCNC(=O)CC[C@H](NC(=O)CCCCCCCCCCCCCCCCCCCCC(=O)O)C(=O)O)C(=O)NCC(=O)NCC(=O)N1CCC[C@H]1C(=O)N[C@@H](CO)C(=O)N[C@@H](CO)C(=O)NCC(=O)N[C@@H](C)C(=O)N1CCC[C@H]1C(=O)N1CCC[C@H]1C(=O)N1CCC[C@H]1C(=O)N[C@@H](CO)C(=O)N[C@@H](CCCCN)C(N)=O)C(C)C` (some centres unmarked) [P020], the mean residence time MRT inf in data set [3] stood at 103 ± 13.1 h; in data set [4] it was 37.1 ± 0.636 h; in data set [5] (iv), 21.8 h; in data set [5] (sc), 29.4 h. In addition, the MRT last in data set [3] was 97.5 ± 9.67 h; in data set [4], 29.5 ± 4.68 h; in data set [5] (iv), 16.8 h; in data set [5] (sc), 21.8 h.

Source of the values: patent publication US12589158B2 (priority 2022, dated 2026).
